# Measurements from patent US10556905B2, “Processes for preparing a diazabicyclooctane compound” (priority 2012, dated 2020).
# Read-outs that look alike come from different tables or passages of the source.
# Tests used:
# OXA-2 = biological target: T1, OXA-2 (Escherichia coli, UniProt P0A1V9); experiment: biochemical; parameters: species or system P. aeruginosa
# T1 construct: AmpC, TEM-1, KPC-2 or OXA-2 domain excluding signal peptide was amplified with PCR; made in house; host or cells: Escherichia coli BL21 (DE3), pET-28b(+)
# T1 sequence (P0A1V9 22-275): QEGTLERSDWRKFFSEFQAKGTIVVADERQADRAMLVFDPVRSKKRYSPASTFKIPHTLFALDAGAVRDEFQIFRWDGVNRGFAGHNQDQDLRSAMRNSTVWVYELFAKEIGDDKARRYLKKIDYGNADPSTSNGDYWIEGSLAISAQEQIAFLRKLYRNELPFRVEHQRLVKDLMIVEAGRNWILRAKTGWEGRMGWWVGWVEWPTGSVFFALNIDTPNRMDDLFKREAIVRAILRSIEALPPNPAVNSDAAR
# AmpC = biological target: T2, AmpC (Pseudomonas aeruginosa, UniProt P24735); experiment: biochemical
# T2 construct: AmpC, TEM-1, KPC-2 or OXA-2 domain excluding signal peptide was amplified with PCR; made in house; host or cells: Escherichia coli BL21 (DE3), pET-28b(+)
# T2 sequence (P24735 27-397): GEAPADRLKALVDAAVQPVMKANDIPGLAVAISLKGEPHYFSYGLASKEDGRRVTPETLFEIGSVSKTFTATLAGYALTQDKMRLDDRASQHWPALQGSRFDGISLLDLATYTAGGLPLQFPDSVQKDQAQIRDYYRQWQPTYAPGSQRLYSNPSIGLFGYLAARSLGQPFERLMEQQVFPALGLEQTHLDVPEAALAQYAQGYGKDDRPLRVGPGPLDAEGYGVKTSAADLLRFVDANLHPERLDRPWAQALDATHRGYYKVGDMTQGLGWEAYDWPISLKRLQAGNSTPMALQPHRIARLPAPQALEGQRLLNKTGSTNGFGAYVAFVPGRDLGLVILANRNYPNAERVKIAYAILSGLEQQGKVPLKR
# TEM-1 = biological target: T3, TEM-1 (Escherichia coli, UniProt P62593); experiment: β-Lactamase inhibitory activity (nitrocefin hydrolysis), TEM-1; type: biochemical; conditions: TEM-1 0.1 nM, 100 μM nitrocefin, pre-incubation 30° C. 10 minutes
# T3 construct: AmpC, TEM-1, KPC-2 or OXA-2 domain excluding signal peptide was amplified with PCR; made in house; host or cells: Escherichia coli BL21 (DE3), pET-28b(+)
# T3 sequence (P62593 24-286 limits assumed): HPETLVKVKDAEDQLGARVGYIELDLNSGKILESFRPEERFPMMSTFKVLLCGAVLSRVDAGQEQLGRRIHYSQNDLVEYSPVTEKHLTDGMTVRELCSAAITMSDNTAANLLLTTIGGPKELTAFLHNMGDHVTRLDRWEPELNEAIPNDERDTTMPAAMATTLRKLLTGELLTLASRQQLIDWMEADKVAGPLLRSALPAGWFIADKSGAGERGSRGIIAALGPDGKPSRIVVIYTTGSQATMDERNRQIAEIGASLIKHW
# Procedure: Using Pseudomonas aeruginosa ATCCBAA-47 genome, plasmid pBR322, Klebsiella pneumoniae ATCCBAA-1705, and P. aeruginosa MSC17696 as a template, each DNA for encoding β-lactamase, AmpC, TEM-1, KPC-2 or OXA-2 domain excluding signal peptide was amplified with PCR. Each of the PCR product was incorporated into pET-28b(+)vector (Merck), introduced into Escherichia coli BL21 (DE3) (Merck), and, under induction of 1 mM isopropyl-β-D-(−)-thiogalactopyranoside (Nacalai Tesque), cultured overnight at 20° C. to express AmpC, TEM-1, KPC-2, and OXA-2. After the bacterial cell was collected, AmpC was purified from the cell extract obtained by ultrasonic treatment, using CM Sepharose Fast Flow (GE Healthcare) and HiTrap Heparin HP (GE Healthcare) at 4° C. TEM-1 was purified with HiTrap SPHP (GE Healthcare), HiTrap Q (GE Healthcare) and Mono Q (GE Healthcare), and KPC-2 was purified with HiTrap SPHP. OXA-2 was purified with HiTrap SPHP and HiTrap Heparin HP.
# For the measurement of β-lactamase inhibitory activity, 100 μM (final concentration) nitrocefin (Oxoid) was used as a substrate, and 2.5% DMSO, 10 μg/mL bovine serum derived albumin (Sigma-Aldrich) and 50 mM phosphate buffer at pH 7.0 were used as a reaction solution. […] Nitrocefin was added to each well to be mixed therein, followed by incubation at 30° C. for 20 minutes, and Multiscan Ascent (Thermo Fisher Scientific) was used to measure 492 nm wavelength, thereby measuring nitrocefin hydrolytic activity of β-Lactamase, to determine enzyme inhibitory activity. […] As the inhibitory activity strength, less than 0.1 μM, less than 1 μM, less than 3 μM, less than 10 μM, and 10 μM or more were shown with A, B, C, D, and E respectively.
# KPC-2 = biological target: T4, KPC-2 (Klebsiella pneumoniae, UniProt Q9F663); experiment: β-Lactamase inhibitory activity (nitrocefin hydrolysis), KPC-2; type: biochemical; conditions: KPC-2 0.5 nM, 100 μM nitrocefin, pre-incubation 30° C. 10 minutes
# T4 construct: AmpC, TEM-1, KPC-2 or OXA-2 domain excluding signal peptide was amplified with PCR; made in house; host or cells: Escherichia coli BL21 (DE3), pET-28b(+)
# T4 sequence (Q9F663 25-293, looked up): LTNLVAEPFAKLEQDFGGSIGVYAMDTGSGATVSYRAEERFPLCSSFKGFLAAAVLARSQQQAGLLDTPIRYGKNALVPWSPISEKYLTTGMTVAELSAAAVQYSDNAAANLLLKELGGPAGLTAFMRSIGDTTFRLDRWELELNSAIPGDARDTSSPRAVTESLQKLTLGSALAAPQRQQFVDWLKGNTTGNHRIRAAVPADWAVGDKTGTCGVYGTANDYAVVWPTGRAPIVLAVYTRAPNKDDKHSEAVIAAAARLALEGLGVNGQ
# [1] = OXA-2 2 nM, 100 μM nitrocefin, pre-incubation 30° C. 10 minutes, read-out: β-Lactamase inhibitory activity OXA-2 (IC50)
SMILES,IC50 (OXA-2; [1]),IC50 (AmpC),IC50 (TEM-1),IC50 (KPC-2),IC50 (OXA-2)
"O=C(NNC(=O)[C@@H]1CC[C@@H]2CN1C(=O)N2OS(=O)(=O)O)[C@H]1CCCN1 [Example 39, (2S,5R)-7-Oxo-N′-[(2R)-pyrrolidin-2-ylcarbonyl]-6-(sulfooxy)-1,6-diazabicyclo[3.2.1]octane-2-carbohydrazide]",1 to 3 µM,< 0.1 µM,< 0.1 µM,1 to 3 µM,
"O=C(NOCCn1cccc1)[C@@H]1CC[C@@H]2CN1C(=O)N2OS(=O)(=O)O [Example 87, Sodium (2S,5R)-7-oxo-N-[2-(1H-pyrrol-1-yl)ethoxy]-6-(sulfooxy)-1,6-diazabicyclo[3.2.1]octane-2-carboxamide]",,< 0.1 µM,< 0.1 µM,< 0.1 µM,0.1 to 1 µM
"O=C(NOCCn1ccnc1)[C@@H]1CC[C@@H]2CN1C(=O)N2OS(=O)(=O)O [Example 86, Sodium (2S,5R)—N-[2-(1H-Imidazol-1-yl)ethoxy]-7-oxo-6-(sulfooxy)-1,6-diazabicyclo[3.2.1]octane-2-carboxamide]",,< 0.1 µM,< 0.1 µM,0.1 to 1 µM,
"O=C(NNC(=O)[C@@H]1CC[C@@H]2CN1C(=O)N2OS(=O)(=O)O)c1ccccc1 (racemic) [Example 30, Sodium (2SR,5RS)—N′-benzoyl-7-oxo-6-(sulfooxy)-1,6-diazabicyclo[3.2.1]octane-2-carbohydrazide]",,0.1 to 1 µM,< 0.1 µM,0.1 to 1 µM,
"CC(C)(C)OC(=O)NNC(=O)[C@@H]1CC[C@@H]2CN1C(=O)N2OS(=O)(=O)O (racemic) [Example 53, Sodium tert-butyl 2-{[(2SR,5RS)-7-oxo-6-(sulfooxy)-1,6-diazabicyclo[3.2.1]oct-2-yl]carbonyl}hydrazinecarboxylate]",,0.1 to 1 µM,< 0.1 µM,0.1 to 1 µM,
"O=C(NOCCN1CCNCC1)[C@@H]1CC[C@@H]2CN1C(=O)N2OS(=O)(=O)O [Example 73, (2S,5R)-7-Oxo-N-[2-(piperazin-1-yl)ethoxy]-6-(sulfooxy)-1,6-diazabicyclo[3.2.1]octane-2-carboxamide]",,< 0.1 µM,< 0.1 µM,0.1 to 1 µM,
"NC(=O)[C@@H]1CC[C@@H]2CN1C(=O)N2OS(=O)(=O)O [NXL104, reference compound]",0.1 to 1 µM,,,,
"C[C@]1(Cn2ccnn2)[C@H](C(=O)O)N2C(=O)C[C@H]2S1(=O)=O [TAZ, tazobactam, reference compound]",< 0.1 µM,,,0.1 to 1 µM,
"CCONC(=O)[C@@H]1CC[C@@H]2CN1C(=O)N2OS(=O)(=O)O (racemic) [Example 57, Sodium (2SR,5RS)—N-ethoxy-7-oxo-6-(sulfooxy)-1,6-diazabicyclo[3.2.1]octane-2-carboxamide]",,0.1 to 1 µM,< 0.1 µM,1 to 3 µM,
"NCC(=O)NNC(=O)[C@@H]1CC[C@@H]2CN1C(=O)N2OS(=O)(=O)O (racemic) [Example 26, (2SR,5RS)—N′-(Aminoacetyl)-7-oxo-6-(sulfooxy)-1,6-diazabicyclo[3.2.1]octane-2-carbohydrazide]",,1 to 3 µM,0.1 to 1 µM,1 to 3 µM,
"O=C(NC1CCNCC1)[C@@H]1CC[C@@H]2CN1C(=O)N2OS(=O)(=O)O [MK-7655, reference compound]",0.1 to 1 µM,,,,
"CNNC(=O)[C@@H]1CC[C@@H]2CN1C(=O)N2OS(=O)(=O)O (racemic) [Example 19, (2SR,5RS)—N′-Methyl-7-oxo-6-(sulfooxy)-1,6-diazabicyclo[3.2.1]octane-2-carbohydrazide]",,0.1 to 1 µM,< 0.1 µM,0.1 to 1 µM,
"O=C([C@@H]1CC[C@@H]2CN1C(=O)N2OS(=O)(=O)O)N1CCCCO1 [Example 71, Sodium (2S,5R)-2-(1,2-oxazinan-2-ylcarbonyl)-6-(sulfooxy)-1,6-diazabicyclo[3.2.1]octane-7-one]",,0.1 to 1 µM,< 0.1 µM,0.1 to 1 µM,
